In brackets after ≈: the same amount, converted by molar mass.
How the values were obtained:
[1] = High-throughput (direct-to-biology) human liver microsomal stability assay; conditions: for %Change After 60 min: %remaining after LSS minus before LSS at 60 min; for remaining at 0 h, 105 µM / remaining at 0.25 h, 105 µM / remaining at 0.5 h, 105 µM / remaining at 1 h, 105 µM / half-life at 105 µM: both, human, microsomes, pH 7.4
[2] = Measurement of LogPo/w (n-octanol/water, RP-HPLC); type: physicochemical; conditions: n = 3; for logP at 24 h: measured n-octanol-water partition coefficient, 30 °C; for C(oil): n-octanol phase; for C(oil) / C(aqueous): n-octanol/water 1:1, 30 °C, 24 h; for C(aqueous): water phase
[3] = Metabolic stability in human liver microsomes (Pharmaron); conditions: for CLint scaled at 1 µM / microsomal CLint at 1 µM / half-life at 1 µM: both, microsomes; for CLint scaled at 1 µM / microsomal CLint at 1 µM / half-life at 1 µM / Hepatic Extraction Ratio (ER) / Predicted Hepatic CLH: human; for Remaining Percentage 0.5 min / Remaining Percentage 5 min / Remaining Percentage 15 min / Remaining Percentage 30 min: human liver microsomes 0.5 mg/mL, +Cofactors (NADPH), 1 μM; for Predicted Hepatic CLH: QH 21 mL/min/kg, fub assumed 1
SARS-CoV M^pro = conditions: Figure 1B; cited from earlier work
[4] = set-up: method as in PMID 23701517; conditions: Figure 1B; cited from earlier work
[5] = set-up: method as in PMID 23701517; conditions: aqueous solubility, Figure 1B; cited from earlier work
[6] = Traditional t1/2, human liver microsomes, Figure 6B
[7] = in vitro t1/2, human liver microsomes, Table S21

Row | Compound | %Change After 60 min ([1]; human liver microsomes) [%] | remaining at 0 h, 105 µM [1] [%] | remaining at 0.25 h, 105 µM [1] [%] | remaining at 0.5 h, 105 µM [1] [%] | remaining at 1 h, 105 µM [1] [%] | logP at 24 h [2] | C(oil) [2] [mg/mL] | C(aqueous) [2] [mg/mL] | further results
1 | Nc1c2ccccc2nc2ccccc12 [Aminacrine] | -12.39 | 100 | 83.7 | 75.1 | 66.2 |  |  |  | 
2 | COC(=O)N[C@H](C(=O)N[C@@H](Cc1ccccc1)[C@@H](O)CN(Cc1ccc(-c2ccccn2)cc1)NC(=O)[C@@H](NC(=O)OC)C(C)(C)C)C(C)(C)C [Atazanavir] | -5.37 | 100 | 84.7 | 72.9 | 65.3 |  |  |  | 
3 | CC(Cc1cccc(C(F)(F)F)c1)NCCOC(=O)c1ccccc1 (stereo not drawn) [Benfluorex] |  | 100 |  |  |  |  |  |  | 
4 | CN(Cc1ccc(C(C)(C)C)cc1)Cc1cccc2ccccc12 [Butenafine] | -2.69 | 100 | 97.8 | 95.6 | 94.9 |  |  |  | 
5 | C[C@@H](NCCCc1cccc(C(F)(F)F)c1)c1cccc2ccccc12 [Cinacalcet] | -1.7 | 100 | 67.4 | 49 | 35.4 | 4.61 | 8.962 | 0.0002 | half-life at 105 µM [1]: 35.4 min; CLint scaled at 1 µM [3]: 4.04 L/h/kg; microsomal CLint at 1 µM [3]: 65.6 µL/min/mg; half-life at 1 µM [3, 6]: 21.1 min; half-life at 1 µM [3, 7]: 21.1 min; Hepatic Extraction Ratio (ER) [3]: 0.76; Remaining Percentage 0.5 min [3]: 100.00%; Remaining Percentage 5 min [3]: 80.88%; Remaining Percentage 15 min [3]: 55.07%; Remaining Percentage 30 min [3]: 37.55%; Predicted Hepatic CLH [3]: 0.9606 L/h/kg
6 | CCN(CC)C(=O)c1cccc(C)c1 [Diethyltoluamide] | 0.82 | 100 | 89 | 81.7 | 75.5 |  |  |  | 
7 | CC(C(=O)O)c1ccc(-c2ccccc2)c(F)c1 (stereo not drawn) [Flurbiprofen] | 7.13 | 100 | 50.1 | 25.1 | 9.28 | 1.14 | 1.858 | 0.135 | 
8 | CC(C(=O)O)c1ccc(N2Cc3ccccc3C2=O)cc1 (stereo not drawn) [Indoprofen] | -14.04 | 100 | 97.6 | 99 | 102 | 1.02 | 0.943 | 0.091 | 
9 | COc1ccc2cc(CCC(C)=O)ccc2c1 [Nabumetone, nabumetone] | 5.23 | 100 | 58 | 40.7 | 21.7 |  |  |  | 
10 | COc1ccccc1N1CCN(CC(O)COc2cccc3ccccc23)CC1 (stereo not drawn) [Naftopidil] | -25.63 | 100 | 72.2 | 58.9 | 47 | 2.04 | 1.697 | 0.016 | 
11 | O=C(C1CCCCC1)N1CC(=O)N2CCc3ccccc3C2C1 (stereo not drawn) [Praziquantel, praziquantel] | -15.26 |  |  | 31.8 | 15.3 |  |  |  | 
12 | CCCNC(C)C(=O)Nc1ccccc1C (stereo not drawn) [Prilocaine] | -13.77 | 100 | 86 | 75 | 67.4 | 1.02 | 1.306 | 0.124 | 
13 | CCC1(c2ccccc2)C(=O)NCNC1=O [Primidone] | 2.16 | 100 | 71 | 43.6 | 27.8 |  |  |  | 
14 | CC(C)NCC(O)COc1cccc2ccccc12 (stereo not drawn) [Propranolol] |  |  |  |  |  |  | 2.871 | 0.015 | 
15 | CCOC(=O)[C@H](C)C[C@@H](Cc1ccc(-c2ccccc2)cc1)NC(=O)CCC(=O)O [Sacubitril] | -1.91 | 100 | 60.2 | 34 | 22.6 | 1.47 | 1.368 | 0.047 | 
16 | CCN(Cc1ccncc1)C(=O)C(CO)c1ccccc1 (stereo not drawn) [Tropicamide] | -2.61 | 100 | 95.2 | 91.9 | 88.1 |  |  |  | 
17 | O=C(/C=C/c1ccccc1)N[C@@H](Cc1ccccc1)C(=O)N[C@@H](C[C@@H]1CCNC1=O)C(=O)C(=O)NCc1ccccc1 [compound 1] |  |  |  |  |  |  |  |  | IC50 (SARS-CoV M^pro): 1.95 µM
18 | O=C(/C=C/c1ccccc1)N[C@@H](CC1CCCCC1)C(=O)N[C@@H](C[C@@H]1CCNC1=O)C(=O)C(=O)NCc1ccccc1 [compound 2] |  |  |  |  |  |  |  |  | IC50 (SARS-CoV M^pro): 0.71 µM
19 | CC1(C)OC(=O)N(c2ccc(C(=O)Nc3cccc4cccnc34)cc2)[C@H]1c1ccccc1 [compound 3] |  |  |  |  |  |  |  |  | Plasma stability (t1/2) [4]: 312 min; Solubility [5]: 5 µg/mL (≈ 11.4 µM)
20 | CC1(C)OC(=O)N([C@H]2CC[C@H](C(=O)Nc3cccc4cccnc34)CC2)[C@H]1c1ccccc1 [compound 4] |  |  |  |  |  |  |  |  | Plasma stability (t1/2) [4]: > 500 min
21 | CCCNC(C)C(=O)NC1CCCCC1C (stereo not drawn) [compound 15] |  |  |  |  |  | 1.39 | 1.569 | 0.064 | 
22 | CC(C)NCC(O)COC1CCCC2CCCCC21 (stereo not drawn) [compound 23] |  |  |  |  |  | 2.62 | 2.697 | 0.007 | 
23 | CC(C(=O)O)c1ccc(C2CCCCC2)c(F)c1 (stereo not drawn) [compound 27] |  |  |  |  |  | 1.54 | 2.453 | 0.071 | microsomal stability upon saturation ([1]; human liver microsomes, saturated congener versus parent drug, in words): increase in stability
24 | COc1ccccc1N1CCN(CC(O)COc2cccc3c2CCCC3)CC1 (stereo not drawn) [compound 28] |  |  |  |  |  | 2.1 | 1.761 | 0.014 | 
25 | CC(C(=O)O)c1ccc(N2C[C@H]3CCCC[C@H]3C2=O)cc1 (stereo partly drawn) [compound 37] |  |  |  |  |  | 0.813 | 0.897 | 0.138 | 
26 | C[C@@H](NCCCc1cccc(C(F)(F)F)c1)c1cccc2c1CCCC2 [compound 39] |  |  |  |  |  | 4.79 | 9.541 | 0.0001 | half-life at 105 µM [1]: 33.7 min; CLint scaled at 1 µM [3]: 4.08 L/h/kg; microsomal CLint at 1 µM [3]: 66.2 µL/min/mg; half-life at 1 µM [3, 6]: 21 min; half-life at 1 µM [3, 7]: 21 min; Hepatic Extraction Ratio (ER) [3]: 0.76; Remaining Percentage 0.5 min [3]: 100.00%; Remaining Percentage 5 min [3]: 85.98%; Remaining Percentage 15 min [3]: 57.81%; Remaining Percentage 30 min [3]: 38.01%; Predicted Hepatic CLH [3]: 0.963 L/h/kg
27 | CCOC(=O)[C@H](C)C[C@@H](Cc1ccc(C2CCCCC2)cc1)NC(=O)CCC(=O)O [compound 70] |  |  |  |  |  | 1.39 | 0.737 | 0.030 | 

— paper PMC11066876, “Late-Stage Saturation of Drug Molecules” (Journal of the American Chemical Society, 2024)
